In patent US12378224B2 (Dong-A Socio Holdings Co., Ltd., priority 2016, dated 2025):

The compounds below were run against human MER (528-end) (Homo sapiens (Human), UniProt Q12866) (assay: HTRF Kinase Activity Biochemical Assay (KinEASE-TK)). Conditions: 10 uM ATP.
Protocol: For the SAR (structure-activity relationship) and compound screening, HTRF (Homogeneous Time Resolved Fluorescence) kinase activity assay was employed for all MER, AXL and TYRO3 kinases using Cisbio HTRF® KinEASE™-TK kit (Cisbio, USA). The kit includes biotin-labeled TK substrate, streptavidin-XL665, Eu3+-cryptate-labeled TK antibody and HTRF® Detection buffer. There are two main steps in the kinase assay: kinase reaction and detection of phosphorylated substrate. The reaction was carried out in white low volume 384-well plate (Corning, USA) with 25 nL compound in dimethyl sulfoxide in each well. […] Then the reaction was stopped after 1 hour incubation at room temperature by adding 5 uL of HTRF® Detection buffer which also contains 0.375 nM Eu3+-cryptate-labeled TK antibody and 0.062 uM streptavidin-XL665(SA-XL665) to allow for detection of the phosphorylated peptide product. After 1 h incubation at room temperature, the fluorescence intensity was measured with Envision™ plate reader (PerkinElmer, USA). Upon excitation at 340 nm by UV, the energy from Eu3+ donor of the antibody is transferred to the FRET acceptor XL665, and […] emits light at 665 nm. The level of kinase activity was quantified by the HTRF ratio that calculated from the intensity of emission at 665 nm and emission at 620 nm (fluorescence intensity @ 665 nm/fluorescence intensity @ 620 nm×10,000). The recombinant protein of human MER (528-end) was purchased from Carnabio, Japan. The recombinant human AXL (473-end) and TYRO3 (455-end) were purchased from SignalChem, Canada.

Sequence of human MER (528-end) (Q12866 528-999 limits assumed): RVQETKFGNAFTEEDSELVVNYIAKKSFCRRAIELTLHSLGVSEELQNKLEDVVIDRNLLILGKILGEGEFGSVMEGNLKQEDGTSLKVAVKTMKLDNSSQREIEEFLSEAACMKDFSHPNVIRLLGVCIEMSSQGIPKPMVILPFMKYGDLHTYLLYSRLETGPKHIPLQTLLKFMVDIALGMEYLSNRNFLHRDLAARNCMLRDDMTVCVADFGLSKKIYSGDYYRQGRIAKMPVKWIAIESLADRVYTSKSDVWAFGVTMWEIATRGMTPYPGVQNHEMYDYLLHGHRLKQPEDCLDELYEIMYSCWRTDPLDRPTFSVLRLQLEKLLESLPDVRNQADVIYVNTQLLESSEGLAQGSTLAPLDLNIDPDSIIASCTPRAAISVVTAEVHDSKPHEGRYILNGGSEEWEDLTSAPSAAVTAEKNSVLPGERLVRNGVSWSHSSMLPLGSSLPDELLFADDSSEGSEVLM

Compound	IC50
Cn1cc(-c2cnc(N)c(C(=O)N[C@@H]3CCN(C(=S)Nc4ccc(Cl)c(Cl)c4)C3)c2)cn1 [Example 44, (R)-2-amino-N-(1-((3,4-dichlorophenyl)carbamothioyl)pyrrolidin-3-yl)-5-(1-methyl-1H-pyrazol-4-yl)nicotinamide]	> 1000 nM
COc1ccc(NC(=S)N2CC[C@@H](NC(=O)c3cc(-c4cnn(C)c4)cnc3N)C2)cc1 [Example 45, (R)-2-amino-N-(1-((4-methoxyphenyl)carbamothioyl)pyrrolidin-3-yl)-5-(1-methyl-1H-pyrazol-4-yl)nicotinamide]	> 1000 nM
Cn1cc(-c2cnc(N)c(C(=O)N[C@@H]3CCN(C(=S)Nc4ccc(Br)cc4)C3)c2)cn1 [Example 46, (R)-2-amino-N-(1-((4-bromophenyl)carbamothioyl)pyrrolidin-3-yl)-5-(1-methyl-1H-pyrazol-4-yl)nicotinamide]	> 1000 nM
Cn1cc(-c2cnc(N)c(C(=O)N[C@@H]3CCN(C(=S)Nc4ccc([N+](=O)[O-])cc4)C3)c2)cn1 [Example 47, (R)-2-amino-5-(1-methyl-1H-pyrazol-4-yl)-N-(1-((4-nitrophenyl)carbamothioyl)pyrrolidin-3-yl)nicotinamide]	> 1000 nM
CN(C)c1ccc(NC(=S)N2CC[C@@H](NC(=O)c3cc(-c4cnn(C)c4)cnc3N)C2)cc1 [Example 48, (R)-2-amino-N-(1-((4-(dimethylamino)phenyl)carbamothioyl)pyrrolidin-3-yl)-5-(1-methyl-1H-pyrazol-4-yl)nicotinamide]	> 1000 nM
Cn1cc(-c2cnc(N)c(C(=O)N[C@@H]3CCN(C(=S)Nc4cc(Cl)cc(Cl)c4)C3)c2)cn1 [Example 50, (R)-2-amino-N-(1-((3,5-dichlorophenyl)carbamothioyl)pyrrolidin-3-yl)-5-(1-methyl-1H-pyrazol-4-yl)nicotinamide]	100 to 1000 nM
Cn1cc(-c2cnc(N)c(C(=O)N[C@@H]3CCN(C(=S)Nc4cccc(-c5ccccc5)c4)C3)c2)cn1 [Example 51, (R)—N-(1-([1,1′-biphenyl]-3-ylcarbamothioyl)pyrrolidin-3-yl)-2-amino-5-(1-methyl-1H-pyrazol-4-yl)nicotinamide]	100 to 1000 nM
Cn1cc(-c2cnc(N)c(C(=O)N[C@@H]3CCN(C(=S)Nc4cccc(Br)c4)C3)c2)cn1 [Example 52, (R)-2-amino-N-(1-((3-bromophenyl)carbamothioyl)pyrrolidin-3-yl)-5-(1-methyl-1H-pyrazol-4-yl)nicotinamide]	> 1000 nM
Cn1cc(-c2cnc(N)c(C(=O)N[C@@H]3CCN(C(=O)Oc4ccccc4)C3)c2)cn1 [Example 54, phenyl (R)-3-(2-amino-5-(1-methyl-1H-pyrazol-4-yl)nicotinamido)pyrrolidine-1-carboxylate]	> 1000 nM
Cn1cc(-c2cnc(N)c(C(=O)N[C@@H]3CCN(C(=O)Oc4cccc(C(=O)N5CCCCC5)c4)C3)c2)cn1 [Example 55, 3-(piperidine-1-carbonyl)phenyl (R)-3-(2-amino-5-(1-methyl-1H-pyrazol-4-yl)nicotinamido)pyrrolidine-1-carboxylate]	> 1000 nM
Cn1cc(-c2cnc(N)c(C(=O)N[C@@H]3CCN(C(=O)Oc4ccc5c(c4)CCCC5)C3)c2)cn1 [Example 56, 5,6,7,8-tetrahydronaphthalen-2-yl (R)-3-(2-amino-5-(1-methyl-1H-pyrazol-4-yl)nicotinamido)pyrrolidine-1-carboxylate]	100 to 1000 nM
Cc1cc(OC(=O)N2CC[C@@H](NC(=O)c3cc(-c4cnn(C)c4)cnc3N)C2)cc(C(C)C)c1 [Example 57, 3-isopropyl-5-methylphenyl (R)-3-(2-amino-5-(1-methyl-1H-pyrazol-4-yl)nicotinamido)pyrrolidine-1-carboxylate]	> 1000 nM
Cn1cc(-c2cnc(N)c(C(=O)N[C@@H]3CCN(C(=O)Oc4cccc(OCc5ccccc5)c4)C3)c2)cn1 [Example 59, 3-(benzyloxy)phenyl (R)-3-(2-amino-5-(1-methyl-1H-pyrazol-4-yl)nicotinamido)pyrrolidine-1-carboxylate]	> 1000 nM
COc1cc(Br)ccc1OC(=O)N1CC[C@@H](NC(=O)c2cc(-c3cnn(C)c3)cnc2N)C1 [Example 63, 4-bromo-2-methoxyphenyl (R)-3-(2-amino-5-(1-methyl-1H-pyrazol-4-yl)nicotinamido)pyrrolidine-1-carboxylate]	> 1000 nM
COC(=O)c1cccc(OC(=O)N2CC[C@@H](NC(=O)c3cc(-c4cnn(C)c4)cnc3N)C2)c1 [Example 64, 3-(methoxycarbonyl)phenyl (R)-3-(2-amino-5-(1-methyl-1H-pyrazol-4-yl)nicotinamido)pyrrolidine-1-carboxylate]	> 1000 nM
COC(=O)c1ccc(OC)cc1OC(=O)N1CC[C@@H](NC(=O)c2cc(-c3cnn(C)c3)cnc2N)C1 [Example 65, 5-methoxy-2-(methoxycarbonyl)phenyl (R)-3-(2-amino-5-(1-methyl-1H-pyrazol-4-yl)nicotinamido)pyrrolidine-1-carboxylate]	> 1000 nM
Cn1cc(-c2cnc(N)c(C(=O)N[C@@H]3CCN(C(=O)OC4CCCCC4)C3)c2)cn1 [Example 66, cyclohexyl (R)-3-(2-amino-5-(1-methyl-1H-pyrazol-4-yl)nicotinamido)pyrrolidine-1-carboxylate]	> 1000 nM
Cn1cc(-c2cnc(N)c(C(=O)N[C@@H]3CCN(C(=O)Oc4ccc5cc(Br)ccc5c4)C3)c2)cn1 [Example 67, 6-bromonaphthalen-2-yl (R)-3-(2-amino-5-(1-methyl-1H-pyrazol-4-yl)nicotinamido)pyrrolidine-1-carboxylate]	100 to 1000 nM
CCNc1cc(OC(=O)N2CC[C@@H](NC(=O)c3cc(-c4cnn(C)c4)cnc3N)C2)ccc1C [Example 74, 3-(ethylamino)-4-methylphenyl (R)-3-(2-amino-5-(1-methyl-1H-pyrazol-4-yl)nicotinamido)pyrrolidine-1-carboxylate]	> 1000 nM
Cn1cc(-c2cnc(N)c(C(=O)N[C@@H]3CCN(C(=O)Oc4ccc(Cl)cc4C4CCCCC4)C3)c2)cn1 [Example 75, 4-chloro-2-cyclohexylphenyl (R)-3-(2-amino-5-(1-methyl-1H-pyrazol-4-yl)nicotinamido)pyrrolidine-1-carboxylate]	> 1000 nM
CC(=O)Nc1cccc(OC(=O)N2CC[C@@H](NC(=O)c3cc(-c4cnn(C)c4)cnc3N)C2)c1 [Example 76, 3-acetamidophenyl (R)-3-(2-amino-5-(1-methyl-1H-pyrazol-4-yl)nicotinamido)pyrrolidine-1-carboxylate]	> 1000 nM

Second part, the compound after the results:

IC50	Compound
> 1000 nM	Cn1cc(-c2cnc(N)c(C(=O)N[C@@H]3CCN(C(=O)Oc4ccccc4OCc4ccccc4)C3)c2)cn1 [Example 58, 2-(benzyloxy)phenyl (R)-3-(2-amino-5-(1-methyl-1H-pyrazol-4-yl)nicotinamido)pyrrolidine-1-carboxylate]
> 1000 nM	Cn1cc(-c2cnc(N)c(C(=O)N[C@@H]3CCN(C(=O)Oc4cccc(Cl)c4Cl)C3)c2)cn1 [Example 60, 2,3-dichlorophenyl (R)-3-(2-amino-5-(1-methyl-1H-pyrazol-4-yl)nicotinamido)pyrrolidine-1-carboxylate]
> 1000 nM	Cn1cc(-c2cnc(N)c(C(=O)N[C@@H]3CCN(C(=O)Oc4cc(Cl)ccc4Cl)C3)c2)cn1 [Example 61, 2,5-dichlorophenyl (R)-3-(2-amino-5-(1-methyl-1H-pyrazol-4-yl)nicotinamido)pyrrolidine-1-carboxylate]
> 1000 nM	Cn1cc(-c2cnc(N)c(C(=O)N[C@@H]3CCN(C(=O)Oc4ccccc4C#N)C3)c2)cn1 [Example 62, 2-cyanophenyl (R)-3-(2-amino-5-(1-methyl-1H-pyrazol-4-yl)nicotinamido)pyrrolidine-1-carboxylate]
> 1000 nM	Cn1cc(-c2cnc(N)c(C(=O)N[C@@H]3CCN(C(=O)Oc4cccc5ccccc45)C3)c2)cn1 [Example 68, naphthalen-1-yl (R)-3-(2-amino-5-(1-methyl-1H-pyrazol-4-yl)nicotinamido)pyrrolidine-1-carboxylate]
100 to 1000 nM	Cn1cc(-c2cnc(N)c(C(=O)N[C@@H]3CCN(C(=O)Oc4ccc5ccccc5c4N)C3)c2)cn1 [Example 69, 1-aminonaphthalen-2-yl (R)-3-(2-amino-5-(1-methyl-1H-pyrazol-4-yl)nicotinamido)pyrrolidine-1-carboxylate]
> 1000 nM	Cn1cc(-c2cnc(N)c(C(=O)N[C@@H]3CCN(C(=O)Oc4ccccc4CO)C3)c2)cn1 [Example 71, 2-(hydroxymethyl)phenyl (R)-3-(2-amino-5-(1-methyl-1H-pyrazol-4-yl)nicotinamido)pyrrolidine-1-carboxylate]
> 1000 nM	Cn1cc(-c2cnc(N)c(C(=O)N[C@@H]3CCN(C(=O)Oc4ccc5ncccc5c4)C3)c2)cn1 [Example 72, quinolin-6-yl (R)-3-(2-amino-5-(1-methyl-1H-pyrazol-4-yl)nicotinamido)pyrrolidine-1-carboxylate]
> 1000 nM	Cn1cc(-c2cnc(N)c(C(=O)N[C@@H]3CCN(C(=O)Oc4cccc5cccnc45)C3)c2)cn1 [Example 73, quinolin-8-yl (R)-3-(2-amino-5-(1-methyl-1H-pyrazol-4-yl)nicotinamido)pyrrolidine-1-carboxylate]
